Patent publication US20240132559A1, “COMPOSITIONS AND METHODS FOR MODULATING MYC EXPRESSION” (FLAGSHIP PIONEERING INNOVATIONS V, INC., priority 2020, published 2024)

Key:
Hep 3B cells = assay: JQ1 dose response viability with bi-cistronic ZF9-MQ1_ZF3-KRAB (CellTiter-GLO); format: cell-based; conditions: Homo sapiens, Hep3B, 72 h
Description: (§1) This example evaluates the efficacy of bi-cistronic ZF9-MQ1_ZF3-KRAB in combination with JQ1 (BET inhibitor) in multiple HCC cell lines. […] Later generation BET inhibitors are currently being evaluated in the clinic for hematologic indications; however, their toxicity profile have limited their use. Combination treatments that can increase the potency of BET inhibitors at reduced dose levels could improve BET inhibitor tolerability.
(§2) To evaluate potential synergy between bi-cistronic ZF9-MQ1_ZF3-KRAB and JQ1, Hep 3B or SK-HEP-1 cells were plated in 96 well plates at 10,000 cells per well. Cells were then treated with JQ1 with a dose range between 0.1 and 25 μM, with serial dilution of 1:2. Lipid mix carrying bi-cistronic ZF9-MQ1_ZF3-KRAB was then added to a set of the wells at a dose of 0.1 or 0.6 μg/mL. A set of cells was treated with JQ1 alone to use as control. Following 72-hour treatment, cells were lysed with the CellTiter-GLO® reagent and luminescence was quantified using the Glo Max. Relative cell viability was calculated by averaging the untreated values and dividing each experimental luciferase value by that average.

SK-HEP-1 cells = assay: as above; format: cell-based; conditions: Homo sapiens, SK-HEP1, 72 h, SKHEP-1, 72-hour
Description: as §1, §2

SKHEP1 and Hep 3B cells = assay: IC50 of sorafenib or JQ1 in combination with bi-cistronic ZF9-MQ1_ZF3-KRAB; format: cell-based, human; conditions: with bi-cistronic ZF9-MQ1_ZF3-KRAB at 0.6 and 0.1 ug/ml
A549 cells [1] = assay: A549 viability with ZF9-MQ1 and small molecule inhibitors, alone and combined; format: cell-based, human; conditions: each agent separately
A549 cells [2] = assay: A549 cell viability, ZF9-MQ1 alone and with BET or MEK inhibitors (CellTiter-GLO); format: cell-based, human; conditions: 72-hour incubation, single agent
Method: This example evaluates the effect of ZF9-MQ1 construct on A549 cell viability when used in combination with varying concentrations of JQ1 inhibitor.
(§3) A549 cells were seeded at 4,000 cells per well in duplicate plates for cell viability analysis. The 96-well plates were treated in triplicate with GFP or ZF9-MQ1 loaded LNPs at 0.5 ug/mL or 1.0 μg/mL in combination with increasing concentrations of the BET inhibitor JQ1 (concentrations up to 6.25 uM) and incubated. Untreated cells and GFP treated cells were used as controls. After 72-hour incubation, one 96-well plate was lysed with CellTiter-GLO® and luminescence was quantified using the GloMax® Discovery plate reader.
This example evaluates the effect of ZF9-MQ1 construct on A549 cell viability when used in combination with varying concentrations of BET762 inhibitor.
as §3, with “μg/mL” for “ug/mL”, “concentrations (concentrations up to 1.25 uM)” for “concentrations”, “BET762” for “JQ1 (concentrations up to 6.25 uM)”
This example evaluates the effect of ZF9-MQ1 construct on A549 cell viability when used in combination with varying concentrations of BET inhibitor, Birabresib.
as §3, with “μg/mL” for “ug/mL”, “concentrations (concentrations up to 0.625 uM for 0.5 μg/ml ZF9-MQ1 treated cells and up to 0.313 uM for 1.0 μg/ml ZF9-MQ1 treated cells)” for “concentrations”, “Birabresib” for “JQ1 (concentrations up to 6.25 uM)”
This example evaluates the effect of ZF9-MQ1 construct on A549 cell viability when used in combination with varying concentrations of MEK inhibitor, Trametinib.
as §3, with “μg/mL” for “ug/mL”, “concentrations” for “concentrations of the BET inhibitor JQ1”, “0.05” for “6.25”, “uM) of the MEK inhibitor Trametinib” for “uM)”, “Untreated cells and GFP treated cells were used as controls.” left out

MYC = MYC mRNA expression by qPCR in human lung cancer cell lines after LNP transfection; format: cell-based
Method: Viability was measured using the CellTiter-GLO® assay kit from Promega according to manufacturer's protocol. RNA was isolated from three biological replicates, using the Rneasy® Plus 96-well Kit (Qiagen) following the Manufacturer's protocol. RNA samples were retrotranscribed to cDNA using LunaScript® RT SuperMix Kit (NEB) and analyzed by quantitative PCR (qPCR) (in technical triplicates) using a MYC specific TaqMan™ primer/probe set assay with the TaqMan™ Fast Advanced Master Mix (Thermo Scientific). MYC expression was quantified relative to the expression of GAPDH reference genes using the ΔΔCt method, the untreated and dCas9(no-effector) samples were used as calibrators.
(§4) Guide RNAs (Table 13) were designed across the lung super-enhancer region and tested in combination with the KRAB repressor protein conjugated to an enzymatically dead CAS9. The effector mRNA and guide RNAs were co-delivered using LNP delivery with SSOP with mRNA delivery of GFP as a negative control. NCSLC cell line A549 were seeded in 96-well plates in growth media (10000 cells/well). LNP formulations (2.5 ug/ml) were then added to the cells to transfect the effector mRNA/guide RNA then incubated for 72 hours. RNA was isolated from three biological replicates, using the Rneasy® Plus 96-well Kit (Qiagen) following the Manufacture's protocol. RNA samples were retrotranscribed to cDNA using LunaScript® RT SuperMix Kit (NEB) and analyzed by quantitative PCR (qPCR) (in technical triplicates) using a MYC specific TaqMan™ primer/probe set assay with the TaqMan™ Fast Advanced Master Mix (Thermo Scientific). MYC expression was quantified relative to the expression of GAPDH reference genes using the ΔΔCt method, the untreated samples were used as calibrators.
as §4, with “GuideRNAs” for “Guide RNAs”, “MC3” for “SSOP”
Guide RNAs (GD-29833 and GD-29914) targeted to the MYC super-enhancer were tested in combination with repressor proteins including the histone methyltransferase EZH2 (alone or in conjunction with KRAB) and the DNA methyltransferase MQ1 conjugated to an enzymatically dead CAS9. The effector mRNA and guide RNAs were co-delivered using LNP delivery with SSOP with mRNA delivery of GFP as a negative control. NCSLC cell lines A549 or NCI-H2009 were seeded in 96-well plates in growth media (10000 cells/well). LNP formulations (2.5 ug/ml) were then added to the cells to transfect the effector mRNA/guide RNA then incubated for 72 hours. RNA was isolated from three biological replicates, using the Rneasy® Plus 96-well Kit (Qiagen) following the Manufacture's protocol. RNA samples were retrotranscribed to cDNA using LunaScript® RT SuperMix Kit (NEB) and analyzed by quantitative PCR (qPCR) (in technical triplicates) using a MYC specific TaqMan′ primer/probe set assay with the TaqMan™ Fast Advanced Master Mix (Thermo Scientific). MYC expression was quantified relative to the expression of GAPDH reference genes using the ΔΔCt method, the untreated samples were used as calibrators. […]

[3] = bi-cistronic ZF9-MQ1_ZF3-KRAB 0 μg/ml
[4] = bi-cistronic ZF9-MQ1_ZF3-KRAB 0.1 μg/ml
[5] = bi-cistronic ZF9-MQ1_ZF3-KRAB 0.6 μg/ml
[6] = A549, guide delivered with KRAB or MQ1, 120 hours
[7] = A549, guide delivered with dCAS9-KRAB effector mRNA, MC3 LNP 2.5 ug/ml, 72 hours
[8] = A549, guide delivered with dCAS9-KRAB effector mRNA, SSOP LNP 2.5 ug/ml, 72 hours
[9] = A549, guide delivered with dCas9 effectors EZH2, EZH2-KRAB and MQ1, 72 hours
[10] = NCI-H2009, guide delivered with KRAB or MQ1, 120 hours
[11] = NCI-H2009, guide delivered with dCas9 effectors EZH2, EZH2-KRAB and MQ1, 72 hours

Cc1sc2c(c1C)C(c1ccc(Cl)cc1)=N[C@@H](CC(=O)OC(C)(C)C)c1nnc(C)n1-2 [JQ1]
IC50 (Hep 3B cells; [3]): 6.6 µM
IC50 (Hep 3B cells; [4]): 0.6 µM
IC50 (Hep 3B cells; [5]): 0.2 µM
IC50 (SK-HEP-1 cells; [3]): > 25 µM
IC50 (SK-HEP-1 cells; [4]): 1.9 µM
IC50 (SK-HEP-1 cells; [5]): 1.1 µM
IC50 of JQ1 (SKHEP1 and Hep 3B cells; Hep 3B): reduced
IC50 of JQ1 (SKHEP1 and Hep 3B cells; SKHEP1): reduced
inhibition of A549 cell viability, single agent (A549 cells [1]): inhibited cell viability of A549 cells
A549 cell viability, each agent separately (A549 cells [2]): inhibited cell viability

GD-29914: guide RNA to MYC lung super-enhancer, SEQ ID NO: 108 (guide CAGCACTCTCGCTGACCGCA; listed as DNA, chemistry not given here; listed as Homo sapiens)
MYC mRNA down-regulation (in words) (MYC; [6]): significantly downregulate MYC mRNA levels
MYC mRNA down-regulation (in words) (MYC; [7]): effectively downregulate MYC mRNA levels
MYC mRNA down-regulation (in words) (MYC; [8]): effectively downregulate MYC mRNA levels
MYC mRNA down-regulation (in words) (MYC; [9]): effectively downregulate MYC mRNA levels
MYC mRNA down-regulation (in words) (MYC; [10]): significantly downregulate MYC mRNA levels
MYC mRNA down-regulation (in words) (MYC; [11]): effectively downregulate MYC mRNA levels

Cc1sc2c(c1C)C(c1ccc(Cl)cc1)=N[C@@H](CC(=O)Nc1ccc(O)cc1)c1nnc(C)n1-2 [birabresib]
inhibition of A549 cell viability, single agent (A549 cells [1]): inhibited cell viability of A549 cells
A549 cell viability, each agent separately (A549 cells [2]): inhibited cell viability

GD-29833: guide RNA to MYC lung super-enhancer, SEQ ID NO: 96 (guide TGCCACTTCCCCACTAACCC; listed as DNA, chemistry not given here; listed as Homo sapiens)
MYC mRNA down-regulation (in words) (MYC; [6]): significantly downregulate MYC mRNA levels
MYC mRNA down-regulation (in words) (MYC; [7]): effectively downregulate MYC mRNA levels
MYC mRNA down-regulation (in words) (MYC; [8]): effectively downregulate MYC mRNA levels
MYC mRNA down-regulation (in words) (MYC; [9]): effectively downregulate MYC mRNA levels
MYC mRNA down-regulation (in words) (MYC; [10]): significantly downregulate MYC mRNA levels
MYC mRNA down-regulation (in words) (MYC; [11]): effectively downregulate MYC mRNA levels

CC(=O)Nc1cccc(-n2c(=O)n(C3CC3)c(=O)c3c(Nc4ccc(I)cc4F)n(C)c(=O)c(C)c32)c1 [trametinib]
inhibition of A549 cell viability, single agent (A549 cells [1]): inhibited cell viability of A549 cells
A549 cell viability, each agent separately (A549 cells [2]): inhibited cell viability

CCNC(=O)C[C@@H]1N=C(c2ccc(Cl)cc2)c2cc(OC)ccc2-n2c(C)nnc21 [BET762]
inhibition of A549 cell viability, single agent (A549 cells [1]): inhibited cell viability of A549 cells
A549 cell viability, each agent separately (A549 cells [2]): inhibited cell viability
